# Reference: patent US20260137706A1, “METHODS OF TREATING INFLAMMATORY DISEASES” (INTERLINE THERAPEUTICS, INC., priority 2023, published 2026)
# Read-outs that look alike come from different tables or passages of the source.
# Tests used:
# [1] = target: T1, binding of His-XIAP(BIR2)-avi fusion protein to GST-RIPK2 fusion protein (RIPK2/XIAP) (Homo sapiens, UniProt O43353); test: RIPK2-XIAP binding competition PPI assay (TR-FRET); conditions: RIPK2/XIAP binding competition PPI assay; for Emax / PPI Amax bin: Amax; for Emax: read-out: PPI Amax bin; for IC50: read-out: PPI IC50 bin
# T1 construct: made in house; host or cells: baculovirus infected Sf9 cells
# Excerpt: The ability of selected compounds of Formula (I) to inhibit the binding of an His-XIAP(BIR2)-avi fusion protein to a GST-RIPK2 fusion protein was quantified employing the TR-FRET-based competition assay as described in the following paragraphs.
# Recombinant fusion protein of N-terminal Glutathione-S-Transferase (GST) and a fragment of human RIPK2 (amino acids 1-310 of accession number 043353), expressed in baculovirus infected Sf9 cells, purified via glutathione affinity chromatography, was used as GST-RIPK2 fusion protein. Recombinant fusion protein of N-terminal 6×Histidine (His), a fragment of human XIAP (amino acids 152-231 of accession number P98170), and C-terminal avi tag, expressed in baculovirus infected Sf9 cells, purified via Nickel NTA affinity chromatography, was used as the His-XIAP(BIR2)-avi fusion protein.
# For the assay, a working solution of 1 nM GST-RIPK2, 25 nM His-XIAP(BIR2)-avi, 6 nM Anti-His-XL665 […] (Revvity Catalogue No. 61HISXLB), and 0.5 nM Anti-GST-Tb (Revvity Catalogue No. 61GSTTLB) in 25 mM Tris-HCl 7.5, 0.5 mM ethylene glycol-bis(2-aminoethylether)-N,N,N′,N′-tetraacetic acid (EGTA), 10 mM magnesium chloride (MgCl2), 2.5 mM dithiothreitol (DTT), 0.01% (w/v) bovine serum albumin (BSA), 0.005% (w/v) Pluronic F-127 (Sigma), 0.5 mM sodium ortho-vanadate, 5 mM β-Glycerophosphate disodium salt hydrate (BGP) was prepared. 50 nL of a 100-fold concentrated solution of each test compound in DMSO was dispensed via acoustic dispensing into a white low volume 384-well microtiter plate (Perkin Elmer Catalogue No. 6008280). Subsequently, 5 μL of the assay working solution were added.
# The resulting mixture was incubated 120 min at 23° C. Subsequently, the amount of complex formed by the GST-RIPK2, XIAP(BIR2)-avi, Anti-His-XL665, and Anti-GST-Tb was evaluated by measurement of the resonance energy transfer from the Tb-cryptate to the XL665. Therefore, the fluorescence emissions at 520 nm and 665 nm after excitation at 337 nm were measured in a TR-FRET reader, e.g. a Pherastar FS (BMG Labtechnologies, Offenburg, Germany) or an Envision (PerkinElmer). The ratio of the emissions at 665 nm and at 520 nm was taken as the measure of the amount of the complex. The data were normalized (assay reaction without inhibitor=0% activity, 50 nM of GSK583=−100% activity).
# For the RIPK2/XIAP binding competition PPI assay Amax values, “A” denotes an Amax of ≥80%; “B” denotes an Amax of 80%>B≥55; “C” denotes an Amax of 55%>C>30; and “D” denotes an Amax of ≤30%.
# [2] = tested on: NF-κB pathway (SEAP) in THP1-Dual cells; test: THP-1 Dual cell SEAP assay (L18-MDP stimulated); type: cell-based; conditions: read-out: NF-κB THP1 IC50 bin
# Description: THP1-Dual™ cells (InvivoGen Cat #thpd-nfis) allow simultaneous assessment of the NF-κB pathway, by monitoring the activity of secreted embryonic alkaline phosphatase (SEAP) as well as the IRF pathway, by assessing the activity of a secreted luciferase (Lucia). Cells were cultured according to manufacturers' recommendations. For the assay, cell concentration was adjusted to 7.14×10^5 cells/mL in assay media (RPMI 1640, 2 mM L-Glutamine, 25 mM HEPES, 10% fetal bovine serum (heat-inactivated for 30 min at 56° C.), Pen-Strep (100 U/mL)) and 35 µL of cell suspension (˜25,000 cells) per well were added to a flat bottom 384-well plate (white opaque). Plate was centrifuged at 300 g for 2 min, compounds were added in serial dilution series according to the plate layout (volumes ˜500 nL-0.0152 nL) and plate was incubated at 37° C. in 5% CO2 for 30 min. Using assay media, a L18-MDP stock solution, that results in a final concentration of 10 ng/mL L18-MDP in each well when adding 15 μL to each well, was prepared. 15 μL of L18-MDP stock solution was added to each well, while 15 μL of assay media was added to the negative control wells. Plates were subsequently incubated at 37° C. in 5% CO2 overnight (20-24 h).
# For the SEAP assay: without disturbing the cells at the bottom of the well, 15 μL supernatant was transferred to a clear 384-well flat bottom plate and 35 μL QUANTI-Blue Solution per well was added. Following a 2 h incubation at 37° C., the optical density (OD) was measured at 620-655 nm using a microplate reader (PheraStar FS microplate reader with protocol for OD 620-655 nm).
# Values of media-only wells were subtracted and % inhibition for each compound concentration relative to the DMSO/L18-MDP-treated controls was calculated. Inhibition values+/−SD were fitted by non-linear regression using Prism software (GraphPad PRISM Software) to calculate IC50 values.
# T1 sequence (O43353 1-310 limits assumed): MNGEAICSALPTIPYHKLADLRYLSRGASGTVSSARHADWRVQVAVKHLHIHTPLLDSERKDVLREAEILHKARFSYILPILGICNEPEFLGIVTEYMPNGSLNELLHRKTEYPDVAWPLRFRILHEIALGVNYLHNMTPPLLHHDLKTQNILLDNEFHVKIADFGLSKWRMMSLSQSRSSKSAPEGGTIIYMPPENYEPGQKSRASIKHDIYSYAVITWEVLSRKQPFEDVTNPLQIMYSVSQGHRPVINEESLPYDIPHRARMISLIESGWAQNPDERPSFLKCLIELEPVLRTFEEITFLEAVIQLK
Structure (SMILES),Emax [1] [%],IC50 [1] [µM],"IC50 ([2]; Homo sapiens, THP1-Dual) [µM]",IC50 [2] [µM],PPI Amax bin [1]
"COc1cc2ncc(-c3cc(F)c(OC)c(NS(=O)(=O)c4cn[nH]c4)c3)n2cc1C(F)(F)F [Example 137, N-(3-fluoro-2-methoxy-5-(7-methoxy-6-(trifluoromethyl)imidazo[1,2-a]pyridin-3-yl)phenyl)-1H-pyrazole-4-sulfonamide]",> 80,0.0025 to 0.02,0.25 to 1,–,–
"COc1ccc(-c2cnc3cc(OC)c(S(=O)(=O)C(C)(C)C)cn23)cc1NS(=O)(=O)c1cnn(C)c1 [Example 282, N-(5-(6-(tert-butylsulfonyl)-7-methoxyimidazo[1,2-a]pyridin-3-yl)-2-methoxyphenyl)-1-methyl-1H-pyrazole-4-sulfonamide]",> 80,< 0.001,< 0.05,–,–
"CC(F)(CO)COc1cc2ncc(-c3cc(F)c(N)nc3F)n2cc1S(=O)(=O)C(C)(C)C (single isomer, unassigned) [Example 261]",–,0.001 to 0.0025,–,0.05 to 0.25,–
"CCOc1cc2ncc(-c3cc(F)c(OC)c(NS(=O)(=O)c4cnn(C)c4)c3)n2cc1S(=O)(=O)C(C)C [Example 138, N-(5-(7-ethoxy-6-(isopropylsulfonyl)imidazo[1,2-a]pyridin-3-yl)-3-fluoro-2-methoxyphenyl)-1-methyl-1H-pyrazole-4-sulfonamide]",> 80,< 0.001,< 0.05,–,–
"COc1cc2ncc(-c3cc(C)c(OC)c(NS(=O)(=O)c4cnn(C)c4)c3)n2cc1S(=O)(=O)C(C)(C)C [Example 286, N-(5-(6-(tert-butylsulfonyl)-7-methoxyimidazo[1,2-a]pyridin-3-yl)-2-methoxy-3-methylphenyl)-1-methyl-1H-pyrazole-4-sulfonamide]",> 80,< 0.001,0.05 to 0.25,–,–
"COc1cc(NS(=O)(=O)c2cnn(C)c2)cc(-c2cnc3cc(OC)c(S(=O)(=O)C(C)(C)C)cn23)c1 [Example 285, N-(3-(6-(tert-butylsulfonyl)-7-methoxyimidazo[1,2-a]pyridin-3-yl)-5-methoxyphenyl)-1-methyl-1H-pyrazole-4-sulfonamide]",> 80,< 0.001,< 0.05,–,–
"COc1cc2ncc(-c3cc(F)c(OC)c(NS(=O)(=O)c4c(C)nn(C)c4C)c3)n2cc1S(=O)(=O)C(C)(C)C [Example 139, N-(5-(6-(tert-butylsulfonyl)-7-methoxyimidazo[1,2-a]pyridin-3-yl)-3-fluoro-2-methoxyphenyl)-1,3,5-trimethyl-1H-pyrazole-4-sulfonamide]",55 to 80,> 0.02,> 1,–,–
"COc1c(F)cc(-c2cnc3cc(OC[C@H](C)O)c(S(=O)(=O)C(C)(C)C)cn23)cc1NS(C)(=O)=O [Example 269, (S)-N-(5-(6-(tert-butylsulfonyl)-7-(2-hydroxypropoxy)imidazo[1,2-a]pyridin-3-yl)-3-fluoro-2-methoxyphenyl) methanesulfonamide]",55 to 80,< 0.001,< 0.05,–,–
"CC(F)(CO)COc1cc2ncc(-c3cc(Cl)c(N)nc3F)n2cc1S(=O)(=O)C(C)(C)C (single isomer, unassigned) [Example 266]",–,0.001 to 0.0025,–,0.05 to 0.25,A (an Amax of ≥80%)
"COc1cc2ncc(-c3cc(NS(=O)(=O)c4cnn(C)c4)c(OC)c(OC)c3)n2cc1N1CC2(COC2)CC1=O [Example 271, N-(2,3-dimethoxy-5-(7-methoxy-6-(7-oxo-2-oxa-6-azaspiro[3.4]octan-6-yl)imidazo[1,2-a]pyridin-3-yl)phenyl)-1-methyl-1H-pyrazole-4-sulfonamide]",> 80,0.0025 to 0.02,> 1,–,–
"COc1cc2ncc(-c3cc(NS(=O)(=O)c4cnn(C)c4)c(OC)c(OC)c3)n2cc1N1CC(C)CC1=O (single isomer, unassigned) [Example 274]",> 80,0.0025 to 0.02,–,0.25 to 1,–
"COc1cc2ncc(-c3cc(F)c(OC)c(NC(C)c4cnn(C)c4)c3)n2cc1S(=O)(=O)C(C)(C)C (single isomer, unassigned) [Example 302]",> 80,< 0.001,–,< 0.05,–
"COc1cc2ncc(-c3cc(F)c(OC)c(NS(=O)(=O)c4cc(C)sn4)c3)n2cc1S(=O)(=O)C(C)(C)C [Example 292, N-(5-(6-(tert-butylsulfonyl)-7-methoxyimidazo[1,2-a]pyridin-3-yl)-3-fluoro-2-methoxyphenyl)-5-methylisothiazole-3-sulfonamide]",30 to 55,< 0.001,0.05 to 0.25,–,–
"COc1cc2ncc(-c3cc(F)c(OC)c(NC(C)c4cnn(C)c4)c3)n2cc1S(=O)(=O)C(C)(C)C (single isomer, unassigned) [Example 303]",–,0.0025 to 0.02,–,0.25 to 1,A (an Amax of ≥80%)
"COc1c(F)cc(-c2cnc3cc(OC[C@H](C)O)c(S(=O)(=O)C(C)(C)C)cn23)cc1NS(=O)(=O)c1cnn(C)c1 [Example 264, (S)-N-(5-(6-(tert-butylsulfonyl)-7-(2-hydroxypropoxy)imidazo [1,2-a]pyridin-3-yl)-3-fluoro-2-methoxyphenyl)-1-methyl-1H-pyrazole-4-sulfonamide]",> 80,< 0.001,< 0.05,–,–
"COc1cc2ncc(-c3cc(F)c(OC)c(NCc4cnn(C)c4)c3)n2cc1S(=O)(=O)C(C)(C)C [Example 301, 5-(6-(tert-butylsulfonyl)-7-methoxyimidazo[1,2-a]pyridin-3-yl)-3-fluoro-2-methoxy-N-((1-methyl-1H-pyrazol-4-yl)methyl)aniline]",55 to 80,< 0.001,0.05 to 0.25,–,–
"COc1cc2ncc(-c3cc(F)cc(NS(=O)(=O)c4cnn(C)c4)c3)n2cc1S(=O)(=O)C(C)(C)C [Example 284, N-(3-(6-(tert-butylsulfonyl)-7-methoxyimidazo[1,2-a]pyridin-3-yl)-5-fluorophenyl)-1-methyl-1H-pyrazole-4-sulfonamide]",> 80,< 0.001,0.05 to 0.25,–,–
"CCS(=O)(=O)Nc1cc(-c2cnc3cc(OC[C@H](C)O)c(S(=O)(=O)C(C)(C)C)cn23)cc(F)c1OC [Example 270, (S)-N-(5-(6-(tert-butylsulfonyl)-7-(2-hydroxypropoxy)imidazo[1,2-a]pyridin-3-yl)-3-fluoro-2-methoxyphenyl) ethanesulfonamide]",55 to 80,< 0.001,< 0.05,–,–
